In brackets after ≈: the same amount, converted by molar mass.
What follows are molecules tested on Mycobacterium tuberculosis (assay: Antimycobacterial activity against rifampin/isoniazid-resistant Mycobacterium tuberculosis 43 assessed as growth inhibition after 45 days by Canetti proportional method).
Assay type: functional
`CC1(C)[C@@H]2CC[C@@]1(C)[C@H](O)[C@@H]2NC(=O)/C=C/c1ccccc1` was tested, and the MIC was 6.68 µM (≈ 2 µg/mL).
Molecule `CC1(C)[C@@H]2CC[C@@]1(C)[C@H](O)[C@@H]2NC(=O)c1ccco1` has an MIC of 7.59 µM (≈ 2 µg/mL).
With `CC(=O)Oc1ccccc1C(=O)N[C@@H]1[C@H]2CC[C@@](C)([C@@H]1O)C2(C)C` the MIC was greater than 15.1 µM.
For `CC1(C)[C@@H]2CC[C@@]1(C)[C@H](O)[C@@H]2NC(=O)c1cccnc1`, the MIC was 18.2 µM (≈ 5 µg/mL).
`CCNC(=O)N[C@@H]1[C@H]2CC[C@@](C)([C@@H]1O)C2(C)C` showed an MIC greater than 20.8 µM.
Work on `CC1(C)[C@@H]2CC[C@@]1(C)[C@H](O)[C@@H]2NC(=O)CCc1ccccc1` yielded an MIC of 6.63 µM (≈ 2 µg/mL).
